The first assay concerns Ascaridia galli (L3) and Oesophagostumum dentatum (L3 and L4) larvae. Nature of the assay: In vitro anthelmintic larval test, minimum effective concentration by microscopic examination. Format: cell-based. As to conditions: activity against one or both of the nematodes (A. galli L3; O. dentatum L3, L4), 96-well plates, 20 larvae per well, vs DMSO-control, read-out: minimum effective concentration (MEC). Here is the method:
C: Biological Examples Efficacy Against Ascaridia galli and Oesophagostomum dentatum
Anthelmintic effects of compounds of this invention (numbers refer to compound numbers in Table I) were tested in vitro using gut-welling larval stages of two parasitic nematode species: Ascaridia galli (intestinal roundworm of chicken), larval stage 3 (“L3”); and Oesophagostumum dentatum (nodular worm of swine), larval stages 3 and 4 (respectively “L3” and “L4”). When conducting these experiments, DMSO-solutions of various concentrations of compounds of this invention were prepared and incubated in 96-well microtiter plates. The parasites were then distributed at 20 larvae per well. The anthelmintic effects were classified by microscopic examination. The microscopic examination included assessing mortality, damage, motility, progression of development, and neutral red uptake by the larvae in comparison to a DMSO-control.
`Cc1cc(C(=O)N2CC3(CCN(C/C=C/c4ccc(Cl)c(Cl)c4)CC3)c3cc(Sc4ccc(F)cc4)ccc32)ccn1` [Compound 25, [1′-[(E)-3-(3,4-dichlorophenyl)allyl]-5-(4-fluorophenyl)sulfanyl-spiro[indoline-3,4′-piperidine]-1-yl]-(2-methyl-4-pyridyl)methanone]: the minimal effective concentration is at most 50 µM.
The same measure, in the same setting: as for `Cc1cc(C(=O)N2CC3(CCN(C/C=C/c4ccc(Cl)cc4Cl)CC3)c3cc(Sc4ccc(F)cc4)ccc32)cc(Cl)n1` [Compound 30, (2-chloro-6-methyl-4-pyridyl)-[1′-[(E)-3-(2,4-dichlorophenyl)allyl]-5-(4-fluorophenyl)sulfanyl-spiro[indoline-3,4′-piperidine]-1-yl]methanone], the figure is at most 50 µM; as for `Cc1cc(C(=O)N2CC3(CCN(C/C=C/c4ccc(C)c(C)c4)CC3)c3cc(Sc4ccc(F)cc4)ccc32)ccn1` [Compound 16, [1′-[(E)-3-(3,4-dimethylphenyl)allyl]-5-(4-fluorophenyl)sulfanyl-spiro[indoline-3,4′-piperidine]-1-yl]-(2-methyl-4-pyridyl)methanone], at most 50 µM; as for `Cc1ccc(/C=C/CN2CCC3(CC2)CN(C(=O)c2ccnc(Cl)c2)c2ccc(Sc4ccc(F)cc4)cc23)c(C)c1` [Compound 20, (2-chloro-4-pyridyl)-[1′-[(E)-3-(2,4-dimethylphenyl)allyl]-5-(4-fluorophenyl)sulfanyl-spiro[indoline-3,4′-piperidine]-1-yl]methanone], at most 50 µM.
On the same count and under the same terms, the figure for `Cc1cc(C(=O)N2CC3(CCN(C/C=C/c4ccc(Cl)cc4)CC3)c3cc(Sc4ccc(F)cc4)ccc32)ccn1` [Compound 28, [1′-[(E)-3-(4-chlorophenyl)allyl]-5-(4-fluorophenyl)sulfanyl-spiro[indoline-3,4′-piperidine]-1-yl]-(2-methyl-4-pyridyl)methanone] is at most 50 µM; for `Cc1cc(C(=O)N2CC3(CCN(C/C=C/c4ccc(F)cc4)CC3)c3cc(Sc4ccc(F)cc4)ccc32)cc(Cl)n1` [Compound 36, (2-chloro-6-methyl-4-pyridyl)-[1′-[(E)-3-(4-fluorophenyl)allyl]-5-(4-fluorophenyl)sulfanyl-spiro[indoline-3,4′-piperidine]-1-yl]methanone] it is at most 50 µM.
Still for that read-out and setting: as for `O=C(c1ccnc(Cl)c1)N1CC2(CCN(C/C=C/c3ccc(F)c(F)c3)CC2)c2cc(Sc3ccc(F)cc3)ccc21` [Compound 32, (2-chloro-4-pyridyl)-[1′-[(E)-3-(3,4-difluorophenyl)allyl]-5-(4-fluorophenyl)sulfanyl-spiro[indoline-3,4′-piperidine]-1-yl]methanone], the figure is at most 50 µM; as for `Cc1ccc(/C=C/CN2CCC3(CC2)CN(C(=O)c2ccnc(C)c2)c2ccc(Sc4ccc(F)cc4)cc23)cc1` [Compound 19, [5-(4-fluorophenyl)sulfanyl-1′-[(E)-3-(p-tolyl)allyl]spiro[indoline-3,4′-piperidine]-1-yl]-(2-methyl-4-pyridyl)methanone], at most 50 µM; as for `Cc1cc(C(=O)N2CC3(CCN(C/C=C/c4ccc(F)cc4)CC3)c3cc(Sc4ccc(F)cc4)ccc32)ccn1` [Compound 37, [1′-[(E)-3-(4-fluorophenyl)allyl]-5-(4-fluorophenyl)sulfanyl-spiro[indoline-3,4′-piperidine]-1-yl]-(2-methyl-4-pyridyl)methanone], at most 50 µM.
For the compound `O=C(c1ccnc(Cl)c1)N1CC2(CCN(C/C=C/c3ccc(F)cc3)CC2)c2cc(Sc3ccc(F)cc3)ccc21` [Compound 35, (2-chloro-4-pyridyl)-[1′-[(E)-3-(4-fluorophenyl)allyl]-5-(4-fluorophenyl)sulfanyl-spiro[indoline-3,4′-piperidine]-1-yl]methanone], the minimal effective concentration was at most 50 µM.
On the same count and under the same terms, as for `Cc1cc(C(=O)N2CC3(CCN(C/C=C/c4ccc(Cl)c(Cl)c4)CC3)c3cc(Sc4ccc(F)cc4)ccc32)cc(Cl)n1` [Compound 24, (2-chloro-6-methyl-4-pyridyl)-[1′-[(E)-3-(3,4-dichlorophenyl)allyl]-5-(4-fluorophenyl)sulfanyl-spiro[indoline-3,4′-piperidine]-1-yl]methanone], the figure is at most 50 µM; as for `Cc1ccc(/C=C/CN2CCC3(CC2)CN(C(=O)c2cc(C)nc(Cl)c2)c2ccc(Sc4ccc(F)cc4)cc23)c(C)c1` [Compound 21, (2-chloro-6-methyl-4-pyridyl)-[1′-[(E)-3-(2,4-dimethylphenyl)allyl]-5-(4-fluorophenyl)sulfanyl-spiro[indoline-3,4′-piperidine]-1-yl]methanone], at most 50 µM.
Still for that read-out and setting: the figure for `Cc1cc(C(=O)N2CC3(CCN(C/C=C/c4ccc(C)c(C)c4)CC3)c3cc(Sc4ccc(F)cc4)ccc32)cc(Cl)n1` [Compound 15, (2-chloro-6-methyl-4-pyridyl)-[1′-[(E)-3-(3,4-dimethylphenyl)allyl]-5-(4-fluorophenyl)sulfanyl-spiro[indoline-3,4′-piperidine]-1-yl]methanone] is at most 50 µM.
On the same count and under the same terms, as for `Cc1ccc(/C=C/CN2CCC3(CC2)CN(C(=O)c2ccnc(C)c2)c2ccc(Sc4ccc(F)cc4)cc23)c(C)c1` [Compound 22, [1′-[(E)-3-(2,4-dimethylphenyl)allyl]-5-(4-fluorophenyl)sulfanyl-spiro[indoline-3,4′-piperidine]-1-yl]-(2-methyl-4-pyridyl)methanone], the figure is at most 50 µM.
Consider `Cc1ccc(/C=C/CN2CCC3(CC2)CN(C(=O)c2ccnc(Cl)c2)c2ccc(Sc4ccc(F)cc4)cc23)cc1C` [Compound 14, (2-chloro-4-pyridyl)-[1′-[(E)-3-(3,4-dimethylphenyl)allyl]-5-(4-fluorophenyl)sulfanyl-spiro[indoline-3,4′-piperidine]-1-yl]methanone], for which the minimal effective concentration was at most 50 µM.
On the same count and under the same terms, the figure for `Cc1cc(C(=O)N2CC3(CCN(C/C=C/c4ccc(F)c(F)c4)CC3)c3cc(Sc4ccc(F)cc4)ccc32)ccn1` [Compound 34, [1′-[(E)-3-(3,4-difluorophenyl)allyl]-5-(4-fluorophenyl)sulfanyl-spiro[indoline-3,4′-piperidine]-1-yl]-(2-methyl-4-pyridyl)methanone] is at most 50 µM.
On the same count and under the same terms, as for `Cc1ccc(/C=C/CN2CCC3(CC2)CN(C(=O)c2cc(C)nc(Cl)c2)c2ccc(Sc4ccc(F)cc4)cc23)cc1` [Compound 18, (2-chloro-6-methyl-4-pyridyl)-[5-(4-fluorophenyl)sulfanyl-1′-[(E)-3-(p-tolyl)allyl]spiro[indoline-3,4′-piperidine]-1-yl]methanone], the figure is at most 50 µM; as for `O=C(c1ccnc(Cl)c1)N1CC2(CCN(C/C=C/c3ccc(Cl)cc3)CC2)c2cc(Sc3ccc(F)cc3)ccc21` [Compound 26, [1′-[(E)-3-(4-chlorophenyl)allyl]-5-(4-fluorophenyl)sulfanyl-spiro[indoline-3,4′-piperidine]-1-yl]-(2-chloro-4-pyridyl)methanone], at most 50 µM.

The same assay, now with this note: read-out: minimum effective concentration (MEC).
As to `Cc1cc(C(=O)N2CC3(CCN(C/C=C/c4ccccc4)CC3)c3cc(Sc4ccc(F)cc4)ccc32)ccn1` [Compound 13, [1′-[(E)-cinnamyl]-5-(4-fluorophenyl)sulfanyl-spiro[indoline-3,4′-piperidine]-1-yl]-(2-methyl-4-pyridyl)methanone], the minimal effective concentration is at most 50 µM.

Source of the values: patent publication US9096599B2, “Spiroindoline compounds” (Intervet Inc., priority 2011, dated 2015).
